Experimental data as given in patent US20080146669A1, “Novel Chloride Channel Pore Openers” (THE UAB RESEARCH FOUNDATION, priority 2005, published 2008).
Each block holds one molecule with its values, some of them ahead of it.

Assays:
wild-type CFTR = wild-type CFTR (Homo sapiens, UniProt P13569); test: Macroscopic currents in excised inside-out patches from BHK-CFTR cells; format: biochemical; set-up: expressed in transfected cells; provided by J. Hanrahan (McGill University)
Method: Cell culture DNA constructs and transfections. Baby hamster kidney (BHK) cells stably expressing wild type human CFTR (BHK-CFTR) were provided by J. Hanrahan (McGill University). BHK-CFTR cells were cultured in Dulbecco's modified Eagle's medium (DMEM (Mediatech)) supplemented with 5% fetal bovine serum (FBS) and 1 mM penicillin-streptomycin. The growth media for the BHK-CFTR cells also contained 0.5 mM methotrexate to maintain selection for CFTR-expressing cells (22). HEK-293T cells were transiently transfected with wild-type or mutant CFTR cDNA using the Lipofectamine transfection kit following manufacturer's recommendations (Invitrogen, Corp). HEK-293T cells were cultured in DMEM. All cells were grown on plastic coverslips for patch clamp recording and were used 2-3 days post-seeding. Electrophysiology and data analysis. Macroscopic and multi-channel currents were recorded in the excised, inside-out configuration. Patch pipettes were pulled from Corning 8161 glass to tip resistances of […] (macroscopic recordings) or 8-10 mOhm (micropatch studies). […] CFTR currents were recorded in symmetrical solution containing (in mM): 140 N-methyl-D-glucaniine-Cl, 3 MgCl2, 1 EGTA and 10 TES. The pH was adjusted to 7.3. Macroscopic currents were evoked using a ramp protocol from +80 to −80 mV with a 10 sec time period. Patches were held at −80 mV or +80 mV for micropatch (multichannel) recordings. All patch clamp experiments were performed at 21-23° C. Signals from macroscopic and single channel recording were filtered at 20 and 200 Hz, respectively. Data acquisition and analysis were performed using pCLAMP8 and pCLAMP9 software (Axon Instruments). Curve fitting for kinetic analysis was performed using Microcal Origin software. Averaged data are presented as mean +/−SEM. Statistical comparisons were made by performing unpaired t-tests unless otherwise indicated. Ussing Chamber Experiments-CFBE41o epithelial cells stably transfected with ΔF508-CFTR or transiently transfected with wild-type CFTR were cultured as electrically resistive monolayers and assayed in Ussing chambers as described (16). ΔF508-CFTR-expressing monolayers were grown at 27° C. for 2-3 days to enhance the surface expression of this temperature-sensitive mutant. A serosal-to-mucosal Cl^− gradient (120 to 1.2 mM) was imposed, followed by amiloride addition (100 μM) to block Na^+ currents. Compounds were added to both chambers at the indicated concentrations. A 3-mV voltage pulse was imposed every 100 s to monitor transepithelial resistance.

ΔF508-CFTR [1] = target: T1, ΔF508-CFTR (Homo sapiens, UniProt P13569, DEL508-508); test: Macroscopic currents in excised patches from temperature-corrected HEK-293T cells expressing ΔF508-CFTR; format: biochemical; conditions: high PKA 110 U/ml without PKI
T1 construct: expressed in transfected cells; host or cells: HEK-293T, transient; grown at 28° C. for 24 hrs
Method: (§1) Cell culture DNA constructs and transfections. Baby hamster kidney (BHK) cells stably expressing wild type human CFTR (BHK-CFTR) were provided by J. Hanrahan (McGill University). BHK-CFTR cells were cultured in Dulbecco's modified Eagle's medium (DMEM (Mediatech)) supplemented with 5% fetal bovine serum (FBS) and 1 mM penicillin-streptomycin. The growth media for the BHK-CFTR cells also contained 0.5 mM methotrexate to maintain selection for CFTR-expressing cells (22). HEK-293T cells were transiently transfected with wild-type or mutant CFTR cDNA using the Lipofectamine transfection kit following manufacturer's recommendations (Invitrogen, Corp). HEK-293T cells were cultured in DMEM. All cells were grown on plastic coverslips for patch clamp recording and were used 2-3 days post-seeding. Electrophysiology and data analysis. Macroscopic and multi-channel currents were recorded in the excised, inside-out configuration. Patch pipettes were pulled from Corning 8161 glass to tip resistances of […] (macroscopic recordings) or 8-10 mOhm (micropatch studies). CFTR channels were activated following patch excision by exposure of the cytoplasmic face of the patch to catalytic subunit of protein kinase A (PKA; 110 U/ml; Promega) and Mg-ATP (1.5 mM). CFTR currents were recorded in symmetrical solution containing (in mM): 140 N-methyl-D-glucaniine-Cl, 3 MgCl2, 1 EGTA and 10 TES. The pH was adjusted to 7.3. Macroscopic currents were evoked using a ramp protocol from +80 to −80 mV with a 10 sec time period. Patches were held at −80 mV or +80 mV for micropatch (multichannel) recordings. All patch clamp experiments were performed at 21-23° C. Signals from macroscopic and single channel recording were filtered at 20 and 200 Hz, respectively. Data acquisition and analysis were performed using pCLAMP8 and pCLAMP9 software (Axon Instruments). Curve fitting for kinetic analysis was performed using Microcal Origin software. Averaged data are presented as mean +/−SEM. Statistical comparisons were made by performing unpaired t-tests unless otherwise indicated. Ussing Chamber Experiments-CFBE41o epithelial cells stably transfected with ΔF508-CFTR or transiently transfected with wild-type CFTR were cultured as electrically resistive monolayers and assayed in Ussing chambers as described (16). ΔF508-CFTR-expressing monolayers were grown at 27° C. for 2-3 days to enhance the surface expression of this temperature-sensitive mutant. A serosal-to-mucosal Cl^− gradient (120 to 1.2 mM) was imposed, followed by amiloride addition (100 μM) to block Na^+ currents. Compounds were added to both chambers at the indicated concentrations. A 3-mV voltage pulse was imposed every 100 s to monitor transepithelial resistance.

AR-S660A-CFTR = target: T2, AR-S660A-CFTR (Homo sapiens, UniProt P13569, DEL708-835/S660A); test: Macroscopic currents in excised HEK-293T patches, R domain deletion mutant, no PKA; format: biochemical; conditions: 50 μM
T2 construct: expressed in transfected cells; host or cells: HEK-293T, transient
Method: Cell culture DNA constructs and transfections. Baby hamster kidney (BHK) cells stably expressing wild type human CFTR (BHK-CFTR) were provided by J. Hanrahan (McGill University). BHK-CFTR cells were cultured in Dulbecco's modified Eagle's medium (DMEM (Mediatech)) supplemented with 5% fetal bovine serum (FBS) and 1 mM penicillin-streptomycin. The growth media for the BHK-CFTR cells also contained 0.5 mM methotrexate to maintain selection for CFTR-expressing cells (22). HEK-293T cells were transiently transfected with wild-type or mutant CFTR cDNA using the Lipofectamine transfection kit following manufacturer's recommendations (Invitrogen, Corp). HEK-293T cells were cultured in DMEM. All cells were grown on plastic coverslips for patch clamp recording and were used 2-3 days post-seeding. Electrophysiology and data analysis. Macroscopic and multi-channel currents were recorded in the excised, inside-out configuration. Patch pipettes were pulled from Corning 8161 glass to tip resistances of […] (macroscopic recordings) or 8-10 mOhm (micropatch studies). CFTR channels were activated following patch excision by exposure of the cytoplasmic face of the patch to catalytic subunit of protein kinase A (PKA; 110 U/ml; Promega) and Mg-ATP (1.5 mM). CFTR currents were recorded in symmetrical solution containing (in mM): 140 N-methyl-D-glucaniine-Cl, 3 MgCl2, 1 EGTA and 10 TES. […]

R347D-CFTR = target: T3, R347D-CFTR (Homo sapiens, UniProt P13569, R347D); test: Macroscopic currents in excised patches from HEK-293T cells transiently transfected with R347D-CFTR; format: biochemical
T3 construct: expressed in transfected cells; host or cells: HEK-293T, transient
Method: HEK-293T cells were transiently transfected with wild-type or mutant CFTR cDNA using the Lipofectamine transfection kit following manufacturer's recommendations (Invitrogen, Corp). HEK-293T cells were cultured in DMEM. All cells were grown on plastic coverslips for patch clamp recording and were used 2-3 days post-seeding. […] Macroscopic and multi-channel currents were recorded in the excised, inside-out configuration. Patch pipettes were pulled from Corning 8161 glass to tip resistances of 1.5-3.0 mOhm (macroscopic recordings) or 8-10 mOhm (micropatch studies). CFTR channels were activated following patch excision by exposure of the cytoplasmic face of the patch to catalytic subunit of protein kinase A (PKA; 110 U/ml; Promega) and Mg-ATP (1.5 mM). CFTR currents were recorded in symmetrical solution containing (in mM): 140 N-methyl-D-glucaniine-Cl, 3 MgCl2, 1 EGTA and 10 TES. The pH was adjusted to 7.3. Macroscopic currents were evoked using a ramp protocol from +80 to −80 mV with a 10 sec time period. Patches were held at −80 mV or +80 mV for micropatch (multichannel) recordings. All patch clamp experiments were performed at 21-23° C. Signals from macroscopic and single channel recording were filtered at 20 and 200 Hz, respectively. Data acquisition and analysis were performed using pCLAMP8 and pCLAMP9 software (Axon Instruments). […]

CFTR-minus cells = test: Currents across patches excised from CFTR-minus (untransfected) cells; format: biochemical
Method: as §1

G551D-CFTR = target: T4, G551D-CFTR (Homo sapiens, UniProt P13569, G551D); test: Macroscopic currents in excised patches from HEK-293T cells expressing G551D-CFTR; format: biochemical
T4 construct: expressed in transfected cells; host or cells: HEK-293T, transient
Method: as §1, with “Ussing Chamber Experiments-CFBE41o epithelial cells stably transfected with ΔF508-CFTR or transiently transfected with wild-type CFTR were cultured as electrically resistive monolayers and assayed in Ussing chambers as described (16). ΔF508-CFTR-expressing monolayers were grown at 27° C. for 2-3 days to enhance the surface expression of this temperature-sensitive mutant. A serosal-to-mucosal Cl^− gradient (120 to 1.2 mM) was imposed, followed by amiloride addition (100 μM) to block Na^+ currents. Compounds were added to both chambers at the indicated concentrations. A 3-mV voltage pulse was imposed every 100 s to monitor transepithelial resistance.” left out

ΔF508-CFTR [2] = target: T1, ΔF508-CFTR; test: Ussing chamber transepithelial chloride currents, temperature-corrected ΔF508-CFTR CFBE41o- monolayers; format: cell-based; conditions: 1 μM compound with 1 μM forskolin; N=8-12
Method: as §1

AF508-CFTR = conditions: tissue culture cells and mice; reported by Egan et al. (12); cited from earlier work

wild-type CFTR, sequence (P13569 whole entry): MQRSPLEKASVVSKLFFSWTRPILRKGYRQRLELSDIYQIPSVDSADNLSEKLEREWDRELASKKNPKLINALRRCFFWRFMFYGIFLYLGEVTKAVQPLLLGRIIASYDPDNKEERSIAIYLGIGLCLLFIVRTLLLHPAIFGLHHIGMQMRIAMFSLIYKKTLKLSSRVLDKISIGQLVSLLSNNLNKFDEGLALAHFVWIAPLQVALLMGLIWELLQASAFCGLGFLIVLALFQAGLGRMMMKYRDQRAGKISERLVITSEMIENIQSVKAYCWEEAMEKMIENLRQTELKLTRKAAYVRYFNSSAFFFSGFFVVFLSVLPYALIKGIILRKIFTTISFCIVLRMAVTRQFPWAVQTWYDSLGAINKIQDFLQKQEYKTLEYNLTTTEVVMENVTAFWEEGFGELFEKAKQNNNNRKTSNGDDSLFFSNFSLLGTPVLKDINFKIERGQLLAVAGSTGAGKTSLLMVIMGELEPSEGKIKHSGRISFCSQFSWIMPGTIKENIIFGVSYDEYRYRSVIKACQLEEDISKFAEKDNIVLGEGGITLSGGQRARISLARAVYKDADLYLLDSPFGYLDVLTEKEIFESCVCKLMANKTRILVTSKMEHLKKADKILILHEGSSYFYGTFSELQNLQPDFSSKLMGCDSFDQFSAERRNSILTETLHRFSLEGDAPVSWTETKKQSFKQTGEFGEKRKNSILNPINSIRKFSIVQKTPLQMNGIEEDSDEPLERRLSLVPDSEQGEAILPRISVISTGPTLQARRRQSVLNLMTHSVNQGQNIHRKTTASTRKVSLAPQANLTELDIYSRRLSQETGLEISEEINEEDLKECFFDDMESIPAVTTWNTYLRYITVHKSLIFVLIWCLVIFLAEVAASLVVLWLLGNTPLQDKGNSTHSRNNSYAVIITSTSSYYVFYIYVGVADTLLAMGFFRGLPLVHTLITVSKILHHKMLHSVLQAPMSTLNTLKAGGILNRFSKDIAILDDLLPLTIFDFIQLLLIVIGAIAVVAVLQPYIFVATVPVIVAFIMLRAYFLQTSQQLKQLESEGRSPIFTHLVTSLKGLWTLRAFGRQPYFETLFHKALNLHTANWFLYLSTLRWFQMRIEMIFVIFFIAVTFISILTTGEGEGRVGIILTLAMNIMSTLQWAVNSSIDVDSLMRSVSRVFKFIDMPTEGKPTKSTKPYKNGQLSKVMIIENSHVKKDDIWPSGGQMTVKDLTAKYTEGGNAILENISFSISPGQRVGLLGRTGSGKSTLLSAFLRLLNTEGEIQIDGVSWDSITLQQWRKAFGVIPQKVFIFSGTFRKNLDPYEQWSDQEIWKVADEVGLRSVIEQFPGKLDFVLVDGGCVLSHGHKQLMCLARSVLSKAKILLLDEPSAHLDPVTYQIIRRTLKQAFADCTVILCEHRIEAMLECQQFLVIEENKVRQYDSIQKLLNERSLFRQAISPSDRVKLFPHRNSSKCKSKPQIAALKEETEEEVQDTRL
T1 sequence (P13569 with tags, fused parts or gaps DEL508-508): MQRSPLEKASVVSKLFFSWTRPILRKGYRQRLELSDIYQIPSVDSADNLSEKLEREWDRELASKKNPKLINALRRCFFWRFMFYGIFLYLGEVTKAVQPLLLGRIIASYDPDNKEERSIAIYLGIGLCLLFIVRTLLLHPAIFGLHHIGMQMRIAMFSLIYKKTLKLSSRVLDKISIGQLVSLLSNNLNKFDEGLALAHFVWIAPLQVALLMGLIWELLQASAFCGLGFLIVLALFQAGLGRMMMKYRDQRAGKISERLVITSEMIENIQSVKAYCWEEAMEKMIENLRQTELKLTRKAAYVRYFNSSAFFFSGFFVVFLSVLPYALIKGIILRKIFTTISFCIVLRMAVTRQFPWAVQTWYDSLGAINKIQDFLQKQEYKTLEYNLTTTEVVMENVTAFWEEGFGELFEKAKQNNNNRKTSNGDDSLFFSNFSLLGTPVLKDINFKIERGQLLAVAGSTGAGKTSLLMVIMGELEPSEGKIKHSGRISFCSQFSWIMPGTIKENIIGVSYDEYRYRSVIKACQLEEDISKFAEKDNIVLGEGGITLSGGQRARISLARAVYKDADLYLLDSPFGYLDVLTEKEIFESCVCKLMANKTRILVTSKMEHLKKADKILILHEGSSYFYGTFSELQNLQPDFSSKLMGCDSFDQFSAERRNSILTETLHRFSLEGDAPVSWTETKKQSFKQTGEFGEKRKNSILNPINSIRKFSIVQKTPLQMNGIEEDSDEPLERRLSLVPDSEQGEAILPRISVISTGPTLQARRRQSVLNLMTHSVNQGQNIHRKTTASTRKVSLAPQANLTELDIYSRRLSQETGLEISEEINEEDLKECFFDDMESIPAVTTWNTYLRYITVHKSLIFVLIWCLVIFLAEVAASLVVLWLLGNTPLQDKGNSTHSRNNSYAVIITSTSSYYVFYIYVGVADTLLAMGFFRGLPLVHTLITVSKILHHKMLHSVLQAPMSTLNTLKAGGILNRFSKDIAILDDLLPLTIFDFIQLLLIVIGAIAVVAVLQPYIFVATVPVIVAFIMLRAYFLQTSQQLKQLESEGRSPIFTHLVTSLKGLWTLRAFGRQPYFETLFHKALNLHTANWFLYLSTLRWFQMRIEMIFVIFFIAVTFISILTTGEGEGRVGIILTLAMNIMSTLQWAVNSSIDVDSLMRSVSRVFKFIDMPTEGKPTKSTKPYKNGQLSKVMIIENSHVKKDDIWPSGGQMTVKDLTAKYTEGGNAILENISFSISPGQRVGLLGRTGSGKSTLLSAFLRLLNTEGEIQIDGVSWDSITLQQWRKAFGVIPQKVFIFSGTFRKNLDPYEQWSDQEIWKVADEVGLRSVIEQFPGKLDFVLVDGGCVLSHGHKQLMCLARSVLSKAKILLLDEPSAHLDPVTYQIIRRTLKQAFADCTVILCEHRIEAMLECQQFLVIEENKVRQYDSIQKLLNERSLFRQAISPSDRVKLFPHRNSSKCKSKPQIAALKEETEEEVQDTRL
T4 sequence (P13569 whole entry G551D): as the sequence (P13569 whole entry) above, with G551D counted along it
T3 sequence (P13569 whole entry R347D): as the sequence (P13569 whole entry) above, with R347D counted along it
T2 sequence (P13569 with tags, fused parts or gaps S660A/DEL708-835): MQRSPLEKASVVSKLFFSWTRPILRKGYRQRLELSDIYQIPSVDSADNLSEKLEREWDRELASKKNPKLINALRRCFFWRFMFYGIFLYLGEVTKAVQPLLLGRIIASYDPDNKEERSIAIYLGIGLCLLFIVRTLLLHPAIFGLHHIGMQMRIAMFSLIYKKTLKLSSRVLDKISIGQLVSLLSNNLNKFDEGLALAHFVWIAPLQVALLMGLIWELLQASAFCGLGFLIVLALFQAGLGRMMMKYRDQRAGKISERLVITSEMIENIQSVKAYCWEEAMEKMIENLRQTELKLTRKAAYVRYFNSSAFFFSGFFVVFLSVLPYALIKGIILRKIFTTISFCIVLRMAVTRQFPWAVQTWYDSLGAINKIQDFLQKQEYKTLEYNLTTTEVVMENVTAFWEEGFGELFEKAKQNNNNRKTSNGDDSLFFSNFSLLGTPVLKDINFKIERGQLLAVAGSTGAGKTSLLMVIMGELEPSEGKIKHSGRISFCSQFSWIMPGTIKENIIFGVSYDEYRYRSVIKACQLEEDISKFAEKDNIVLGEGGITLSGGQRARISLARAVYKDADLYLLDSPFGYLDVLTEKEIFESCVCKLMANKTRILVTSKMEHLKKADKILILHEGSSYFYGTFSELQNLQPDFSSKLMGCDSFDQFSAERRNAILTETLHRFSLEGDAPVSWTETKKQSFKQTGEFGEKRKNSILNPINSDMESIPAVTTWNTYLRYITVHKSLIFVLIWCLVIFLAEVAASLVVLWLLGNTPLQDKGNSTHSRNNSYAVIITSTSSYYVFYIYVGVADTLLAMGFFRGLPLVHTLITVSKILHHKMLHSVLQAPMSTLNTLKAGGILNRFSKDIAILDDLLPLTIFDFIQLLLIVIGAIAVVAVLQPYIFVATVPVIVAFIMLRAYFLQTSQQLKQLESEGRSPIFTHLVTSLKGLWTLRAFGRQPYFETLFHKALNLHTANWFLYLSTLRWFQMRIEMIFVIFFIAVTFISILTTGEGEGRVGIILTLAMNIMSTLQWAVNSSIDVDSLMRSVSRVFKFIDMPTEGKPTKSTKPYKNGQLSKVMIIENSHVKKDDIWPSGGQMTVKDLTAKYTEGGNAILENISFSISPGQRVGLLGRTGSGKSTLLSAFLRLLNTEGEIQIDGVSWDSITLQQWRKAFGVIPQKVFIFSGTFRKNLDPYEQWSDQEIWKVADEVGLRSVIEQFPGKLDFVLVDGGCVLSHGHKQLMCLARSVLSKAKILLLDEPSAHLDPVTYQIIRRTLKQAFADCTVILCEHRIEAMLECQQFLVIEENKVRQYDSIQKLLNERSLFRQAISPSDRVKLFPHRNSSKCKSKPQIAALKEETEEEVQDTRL

Compound: O=C(O)c1ccccc1Nc1ccccc1 [DPC, reference compound]
- increased CFTR currents, thiolated channels (wild-type CFTR; 0.5 mM): neither

Compound: O=c1c(-c2ccc(O)cc2)coc2cc(O)cc(O)c12 [genistein, reference compound]
- potentiation of the forskolin effect on ΔF508-CFTR transepithelial currents (ΔF508-CFTR [2]): failed to potentiate the forskolin response

Compound: NC(CCc1ccccc1)C(=O)O (stereo not drawn) [APB, reference compound]
- stimulation of thiolated CFTR channels (wild-type CFTR; 400 μM, same conditions as FIG. 1A): fails to stimulate

Compound: COc1ccc(Cl)cc1C(=O)NCCc1ccc(S(=O)(=O)NC(=O)NC2CCCCC2)cc1 [glibenclamide]
- current induced at depolarizing potential in patches excised from CFTR-minus cells (CFTR-minus cells): absent

Compound: N#CS [SCN^−, reference compound]
- increased CFTR currents, thiolated channels (wild-type CFTR; 10 mM): neither

Further lines, with some results ahead:

- effect on currents of moderately phosphorylated wild-type channels (wild-type CFTR; 5-300 μM, high PKA followed by PKI, seven experiments): voltage-dependent block at all doses
- effect on currents of highly phosphorylated CFTR channels (wild-type CFTR; continuous high PKA 110 U/ml without PKI): Only voltage-dependent block
- effect on ΔF508-CFTR macroscopic currents (ΔF508-CFTR [1]; 100 μM): dramatically stimulated
- effect on currents in the absence of PKA (AR-S660A-CFTR): markedly stimulate
- effect on currents of moderately phosphorylated R347D-CFTR channels (R347D-CFTR; low doses, high PKA followed by PKI): stimulates currents in both directions
- effect on G551D-CFTR activity (G551D-CFTR; 200-400 μM): markedly stimulated
Compound: O=C(O)c1cc([N+](=O)[O-])ccc1NCCCc1ccccc1 [NPPB, 5-nitro-2-(3-phenylpropyl-amino)-benzoic acid, reference compound]
- effect on macroscopic current of thiolated (glutathionylated) CFTR channels (wild-type CFTR; 200 μM, high PKA 110 U/ml, 1.5 mM MgATP, PKI, diamide/GSH 20 μM): a large increase in current at depolarizing voltages
- effect on currents of poorly phosphorylated, not thiolated CFTR channels (wild-type CFTR; 30-230 μM, low PKA 2 U/ml followed by PKI): stimulated CFTR currents at depolarizing potentials
- effect on currents of poorly phosphorylated CFTR channels at higher concentrations (wild-type CFTR; higher concentrations of NPPB, low PKA then PKI): block was observed at all recording potentials
- stimulation of R347D-CFTR currents at depolarizing potentials compared with wild type (R347D-CFTR; all levels of phosphorylation): to a greater extent than for wild type CFTR
- current induced at depolarizing potential in patches excised from CFTR-minus cells (CFTR-minus cells): absent
- effect on currents across a patch from untransfected HEK-293T cells (CFTR-minus cells; untransfected HEK-293T): neither
- concentration dependence of G551D-CFTR activation compared to the wild type channel (G551D-CFTR; NPPB titration, wild type activated with low PKA): appreciable shift toward higher concentrations

- effect on CFTR channel activity (wild-type CFTR; 100 μM, data not shown): weak effect
Compound: NS(=O)(=O)c1cc([N+](=O)[O-])ccc1NCCCc1ccccc1 [NPPB-sulf]

- time course and reversibility of the stimulation of CFTR current (wild-type CFTR): transient
- voltage dependence of the stimulation of CFTR current (wild-type CFTR): voltage-independent
- effect on ΔF508-CFTR macroscopic currents (ΔF508-CFTR [1]; 10 μM): dramatically stimulated
Compound: COc1cc(/C=C/C(=O)CC(=O)/C=C/c2ccc(O)c(OC)c2)ccc1O [curcumin]
- effect on moderately phosphorylated CFTR channels (wild-type CFTR; 0.5-40.5 μM, six experiments): stimulates moderately phosphorylated CFTR channels
- biosynthetic maturation and functional correction of the ΔF508-CFTR mutant (AF508-CFTR): promotes the biosynthetic maturation and functional correction
